Entries after “also recorded” stand apart in the source; their conditions may differ.
Tests used:
[1] = Standard drug metabolism and pharmacokinetics (DMPK) assays; type: in vitro ADME
EGFR = EGFR (Homo sapiens, UniProt P00533); assay: EGF-induced EGFR phosphorylation in A431 cells (phosphoflow); settings: 10 μM (highest concentration tested)
KrasL2 NSCLC = KrasL2 NSCLC model; settings: in vivo
NSCLC lung tumors = assay: Genetic tumor model of NSCLC (KrasLA2); type: in vivo, mice; settings: 15 mg/kg
Excerpt: The model is designed to have sporadic expression in single cells of G12D mutant Kras off its own promoter triggered by spontaneous intrachromosomal recombination. Johnson, et al. Nature 2001, 410, 1111-16. While the mutant Kras protein is expressed in a few cells in all tissues, tumor development is seen only in the lung at high penetrance.

T helper 17 (Th17) cells = assay: Effect on T helper 17 (Th17) cells; type: cell-based
CYP3A4 = CYP3A4 (Homo sapiens, UniProt P08684); assay: In vitro CYP metabolism and CYP interaction studies; type: in vitro ADME
ID8 ovarian cancer = assay: ID8 syngeneic orthotropic ovarian cancer model; type: in vivo, mice
primary CLL cells = assay: Rituximab ADCC assay (51Cr release), NK cells against autologous tumor cells; type: cell-based, human; settings: 1 μM; primary CLL samples
B cell lymphoma = assay: Veterinary clinical trial in canine B cell lymphoma; type: in vivo, companion dogs
Excerpt: Canine B cell lymphoma exists as a pathological entity that is characterized by large anaplastic, centroblastic or immunoblastic lymphocytes with high proliferative grade, significant peripheral lymphadenopathy and an aggressive clinical course. While some dogs respond initially to prednisone, most canine lymphomas progress quickly and must be treated with combination therapies, including cyclophosphamide, vincristine, doxorubicin, and prednisone (CHOP), or other cytotoxic agents. In their histopathologic features, clinical course, and high relapse rate after initial treatment, canine B cell lymphomas resemble diffuse large B cell lymphoma (DLBCL) in humans. Thus, responses of canine B cell lymphomas to experimental treatments are considered to provide proof of concept for therapeutic candidates in DLBCL.
Enrollment has completed for both arms.
Intra-subject dose escalation was allowed. Six of the 11 dogs that initiated at 2.5 or 5 mg/kg once daily were escalated and completed the study with dosages of 10 mg/kg twice daily. Among all the dose cohorts, 8 dogs had shrinkage of target lesions >20%; the best tumor responses were between 45-49% reduction in the sum of target lesions in two dogs. […] CR were defined as disappearance of all evidence of disease per evaluator judgment, and absence of new lesions. Vali, et al., Vet. Comp. Oncol. 2010, 8, 28-37. […]

[2] = Respiratory function study (GLP safety pharmacology); settings: doses through 300 mg/kg
BTK = BTK (Homo sapiens, UniProt Q06187); assay: BTK target occupancy in relapsed/refractory CLL patients; type: in vivo; settings: at lower dosage versus ibrutinib
CD8^+ T cell function = assay: Cytotoxicity assay for CD8+ T cell function; type: cell-based; settings: relative to vehicle
CD8^+ T cells = assay: Cytotoxic T cell (CTL) assay; type: cell-based; settings: 500 nM
Description: Without being bound by any theory, CD8^+ T cells have two primary effector functions: (1) produce large amounts of IFN-γ (which activates macrophages), and (2) cytolytic activity. […] The targets were B lymphoblasts from lipopolysaccharide (LPS) treated cultures. The assay was performed by incubating different ratios of effectors:targets for 4 hours.

[3] = Functional observation battery (GLP safety pharmacology); settings: doses through 300 mg/kg
[4] = tested on: KPC derived mouse pancreatic cancer cells; assay: Orthotopic pancreatic cancer model (KPC-derived cells); type: in vivo, C57BL/6 mice; settings: 15 mg/kg oral of each drug
Description: Orthotopic pancreatic cancer models in mice are clinically relevant, benefit from tissue site-specific pathology, and allow for study of metastasis. Qiu and Su, Methods Mol. Biol. 2013, 980, 215-223. A cell line derived from KrasG12D; Trp53R172H; Pdx1-Cre (KPC) mice was orthotopically implanted into the head of the pancreas after 35 passages. Based on the mice background from where the cell lines were generated, 1×10^6 cells were injected in C57BL/6 mice. Throughout the experiment, animals were provided with food and water ad libitum and subjected to a 12-h dark/light cycle. Animal studies were performed in accordance with the U.S. Public Health Service “Guidelines for the Care and Use of Laboratory Animals” (IACUC). After euthanization, pancreatic tumors were dissected out, weighed and single cell suspensions were prepared for flow cytometry analysis.
Results of the experiments are shown in FIG. 110, which illustrates tumor growth suppression in the orthotopic pancreatic cancer model. The statistical p-value (presumption against null hypothesis) is shown for each tested single active pharmaceutical ingredient and for the combination against the vehicle.
In this study, KrasG12D;Trp53R172H; Pdx1-Cre (KPC) derived mouse pancreatic cancer cells (10,000 cells) were injected into the pancreases of 24 female mice. After one week of expansion, drug treatment was started in mice developing pancreatic tumors.
Single cell suspensions from tumor samples were prepared as follows. Mouse tumor tissue was collected and stored in PBS/0.1% soybean trypsin inhibitor prior to enzymatic dissociation. […] Following surface staining, samples were acquired on a BD Fortessa and analyzed using FlowJo (Treestar) software.

Chain of EGFR (P00533 25-1210): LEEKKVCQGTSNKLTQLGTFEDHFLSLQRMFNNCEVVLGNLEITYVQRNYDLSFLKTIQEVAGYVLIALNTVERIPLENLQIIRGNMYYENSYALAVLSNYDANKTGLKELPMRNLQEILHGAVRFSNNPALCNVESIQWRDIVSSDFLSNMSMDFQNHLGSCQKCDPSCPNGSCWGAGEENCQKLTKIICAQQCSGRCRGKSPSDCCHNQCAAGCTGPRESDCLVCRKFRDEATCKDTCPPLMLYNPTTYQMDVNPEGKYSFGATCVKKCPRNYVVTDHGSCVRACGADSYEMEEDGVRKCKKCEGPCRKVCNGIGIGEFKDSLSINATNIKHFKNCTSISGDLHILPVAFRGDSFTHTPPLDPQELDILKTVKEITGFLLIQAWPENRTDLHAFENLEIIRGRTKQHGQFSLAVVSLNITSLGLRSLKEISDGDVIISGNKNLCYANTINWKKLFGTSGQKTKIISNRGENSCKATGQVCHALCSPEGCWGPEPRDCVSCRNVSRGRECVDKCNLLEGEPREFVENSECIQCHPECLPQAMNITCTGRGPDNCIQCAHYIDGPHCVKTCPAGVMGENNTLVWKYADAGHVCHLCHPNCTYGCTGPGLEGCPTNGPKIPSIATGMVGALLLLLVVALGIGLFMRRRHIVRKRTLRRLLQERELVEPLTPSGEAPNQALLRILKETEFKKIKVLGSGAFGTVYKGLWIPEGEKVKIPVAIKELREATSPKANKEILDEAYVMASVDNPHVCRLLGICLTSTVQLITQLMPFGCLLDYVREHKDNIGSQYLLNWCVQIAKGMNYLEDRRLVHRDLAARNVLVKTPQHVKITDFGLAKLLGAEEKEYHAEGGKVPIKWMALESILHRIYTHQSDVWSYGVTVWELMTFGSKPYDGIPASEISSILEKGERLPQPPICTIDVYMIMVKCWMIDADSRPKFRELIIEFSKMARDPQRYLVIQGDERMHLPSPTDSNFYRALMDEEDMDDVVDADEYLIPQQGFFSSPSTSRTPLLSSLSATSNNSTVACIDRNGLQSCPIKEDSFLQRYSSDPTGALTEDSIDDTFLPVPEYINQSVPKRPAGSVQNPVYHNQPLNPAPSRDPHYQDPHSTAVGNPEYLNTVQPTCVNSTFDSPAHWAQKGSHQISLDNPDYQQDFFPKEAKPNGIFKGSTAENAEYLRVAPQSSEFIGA
Chain of CYP3A4 (P08684 whole entry): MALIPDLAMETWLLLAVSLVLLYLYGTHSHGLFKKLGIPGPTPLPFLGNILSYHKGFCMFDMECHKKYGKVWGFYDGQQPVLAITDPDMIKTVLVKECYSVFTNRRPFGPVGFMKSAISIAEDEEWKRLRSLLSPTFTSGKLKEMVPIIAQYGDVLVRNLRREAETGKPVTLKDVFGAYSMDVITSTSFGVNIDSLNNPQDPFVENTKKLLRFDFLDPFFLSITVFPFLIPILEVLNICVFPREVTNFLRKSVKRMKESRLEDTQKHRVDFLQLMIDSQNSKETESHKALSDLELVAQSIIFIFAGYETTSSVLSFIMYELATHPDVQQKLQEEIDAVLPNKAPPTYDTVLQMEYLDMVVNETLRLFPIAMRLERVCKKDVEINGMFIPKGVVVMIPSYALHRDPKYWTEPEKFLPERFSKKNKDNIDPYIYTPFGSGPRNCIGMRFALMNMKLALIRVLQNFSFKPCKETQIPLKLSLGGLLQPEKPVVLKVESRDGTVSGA
Chain of BTK (Q06187 whole entry): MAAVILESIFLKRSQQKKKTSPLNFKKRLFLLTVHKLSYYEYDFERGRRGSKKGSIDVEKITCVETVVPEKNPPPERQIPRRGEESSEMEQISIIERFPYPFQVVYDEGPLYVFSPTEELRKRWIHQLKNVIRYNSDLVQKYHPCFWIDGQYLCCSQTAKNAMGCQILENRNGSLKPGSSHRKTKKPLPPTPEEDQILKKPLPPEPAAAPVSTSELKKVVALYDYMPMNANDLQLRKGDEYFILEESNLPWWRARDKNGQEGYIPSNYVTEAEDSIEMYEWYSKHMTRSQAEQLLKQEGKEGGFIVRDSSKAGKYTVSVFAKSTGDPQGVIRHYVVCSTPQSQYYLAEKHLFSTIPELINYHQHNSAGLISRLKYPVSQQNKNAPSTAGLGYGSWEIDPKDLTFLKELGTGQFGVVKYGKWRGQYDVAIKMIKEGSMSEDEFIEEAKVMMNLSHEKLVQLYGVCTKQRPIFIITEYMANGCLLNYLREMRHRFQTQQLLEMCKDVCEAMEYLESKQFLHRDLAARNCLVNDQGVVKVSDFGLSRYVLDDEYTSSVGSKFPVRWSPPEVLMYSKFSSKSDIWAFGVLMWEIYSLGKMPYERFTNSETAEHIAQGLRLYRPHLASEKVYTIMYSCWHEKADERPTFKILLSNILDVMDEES

CC#CC(=O)N1CCC[C@H]1c1nc(-c2ccc(C(=O)Nc3ccccn3)cc2)c2c(N)nccn12 [Formula (XVIII), (S)-4-(8-amino-3-(1-(but-2-ynoyl)pyrrolidin-2-yl)imidazo[1,5-a]pyrazin-1-yl)-N-(pyridin-2-yl)benzamide]
solubility, plasma protein binding and oral bioavailability versus ibrutinib [1]: greater solubility, less plasma protein binding, and better oral bioavailability than ibrutinib
inhibition of EGFR phosphorylation (EGFR): no inhibition; also recorded: does not inhibit EGFR
immunosuppressive tumor associated MDSCs (KrasL2 NSCLC): significant reduction in immunosuppressive tumor associated MDSCs
immunosuppressive tumor associated TAMs (KrasL2 NSCLC): significant reduction in immunosuppressive tumor associated TAMs
immunosuppressive tumor associated Tregs (KrasL2 NSCLC): significant reduction in immunosuppressive tumor associated Tregs
number of tumors (NSCLC lung tumors): fewer overall tumors
tumor volumes versus vehicle (NSCLC lung tumors): significant decrease in tumor volumes
effect on Th17 cells (T helper 17 (Th17) cells): no adverse effect on T helper 17 (Th17) cells
CYP responsible for loss of parent drug (CYP3A4): metabolized by CYP3A4
drug-drug interaction potential via CYP enzymes (CYP3A4): very unlikely to cause clinical drug-drug interactions
CD8+ T cells (ID8 ovarian cancer; mouse, in vivo): increase in CD8^+ T cells
immunosuppressive tumor associated Tregs (ID8 ovarian cancer; mouse, in vivo): significant reduction in immunosuppressive tumor associated Tregs
ID8 ovarian cancer growth (ID8 ovarian cancer; syngeneic murine model, versus vehicle): impairs ID8 ovarian cancer growth
B regulatory cells (Bregs) (ID8 ovarian cancer; tumor-bearing mice): significant reduction in B regulatory cells (Bregs)
total B cells (ID8 ovarian cancer; tumor-bearing mice): significant reduction in total B cells
immunosuppressive tumor associated lymphocytes (ID8 ovarian cancer; tumor-bearing mice, versus vehicle): significant reduction in immunosuppressive tumor associated lymphocytes
effect on rituximab-mediated ADCC (primary CLL cells): not inhibited
complete responses (CR) (B cell lymphoma; Arm 1: 21 dogs, Arm 2: 10 dogs): not observed
Median time to best response (B cell lymphoma; dog, in vivo): 7 days
respiratory function [2]: no treatment-related adverse effects
BTK target occupancy (BTK): improved BTK target occupancy
CD8+ T cell function as measured by % cytotoxicity (CD8^+ T cell function): no effect on CD8^+ T cell function
CD8^+ T cell function as % cytotoxicity (CD8^+ T cells): no effect on CD8^+ T cell function
neurobehavioral effects or body temperature [3]: no adverse effects
immunosuppressive tumor associated myeloid cells and Tregs [4]: reduce immunosuppressive tumor associated myeloid cells and Tregs
tumor volume versus vehicle [4]: statistically significant reductions in tumor volume

From patent publication US20170239351A1, “Therapeutic Combinations of a BTK Inhibitor, a PI3K Inhibitor, a JAK-2 Inhibitor, a PD-1 Inhibitor, and/or a PD-L1 Inhibitor” (Acerta Pharma B.V., priority 2014, published 2017)
